# Results from patent publication US20230310486A1, “CONJUGATED OLIGONUCLEOTIDE COMPOUNDS, METHODS OF MAKING AND USES THEREOF” (E-Therapeutics PLC, priority 2021, published 2023).
# In the oligonucleotide strings, read from the 5' end, every base follows the letter of its sugar. An asterisk marks phosphorothioate; unmarked linkages are phosphodiester. Other units and linkages are bracketed, terminal groups are in braces. A string of capitals states the bases alone. {ET-GalNAc-T2CO} = code of the source, not defined here; {NH2C12} = code of the source, not defined here; {NHC6} = code of the source, not defined here; m = 2'-O-methyl; f = 2'-fluoro
# Tested on: hsHAO1 mRNA
# Experiment: Dose-response of hsHAO1 targeting GalNAc-siRNAs in primary human hepatocytes, gymnotic free uptake, bDNA assay
# Type: cell-based
# Conditions: PHHs
# Protocol: HepG2 cells were supplied by American Tissue Culture Collection (ATCC) (HB-8065, Lot #: 63176294) and cultured in ATCC-formulated Eagle's Minimum Essential Medium supplemented to contain 10% fetal calf serum (FCS). Primary human hepatocytes (PHHs) were sourced from Primacyt (Schwerin, Germany) (Lot #: CyHuf19009HEc). Cells are derived from a […] by explant technique. All cells used in this study were cultured at 37° C. in an atmosphere with 5% CO2 in a humidified incubator.
# Dose response analysis in PHHs was done by direct incubation of cells in a gymnotic, free uptake setting starting with 1.5 μM highest final siRNA concentration, followed by 500 nM and from there on going serially down in twofold dilution steps.
# Control wells were transfected into HepG2 cells or directly incubated with primary human hepatocytes at the highest test siRNA concentrations studied on the corresponding plate. All control siRNAs included in the different project phases next to mock treatment of cells are summarized and listed in Table 2. For each siRNA and control, at least four wells were transfected/directly incubated in parallel, and individual data points were collected from each well.
# After 24 h of incubation with siRNA post-transfection, media was removed and HepG2 cells were lysed in Lysis Mixture (1 volume of lysis buffer plus 2 volumes of nuclease-free water) and then incubated at 53° C. for at least 45 minutes. In the case of PHHs, plating media was removed 5 h post treatment of cells followed by addition of 50 μl of complete maintenance medium per well. Media was exchanged in that way every 24 h up to a total incubation period of 72 h. At either 4 h or 72 h time point, cell culture supernatant was removed followed by addition of 200 μl of Lysis Mixture supplemented with 1:1000 v/v of Proteinase K.
# The branched DNA (bDNA) assay was performed according to manufacturer's instructions. Luminescence was read using a 1420 Luminescence Counter (WALLAC VICTOR Light, Perkin Elmer, Rodgau-JMgesheim, Germany) following 30 minutes incubation in the presence of substrate in the dark. For each well, the on-target mRNA levels were normalized to the hsGAPDH mRNA levels. The activity of any siRNA was expressed as percent on-target mRNA concentration (normalized to hsGAPDH mRNA) in treated cells, relative to the mean on-target mRNA concentration (normalized to hsGAPDH mRNA) across control wells.
# Following the identification of a suitable batch (CyHuf19009) of primary human hepatocytes (PHHs), a gymnotic, free uptake analysis was performed of hsHAO1 targeting GalNAc-siRNAs, listed in Table 1. The highest tested final siRNA concentration was 1.5 μM, followed by 500 nM, going down in eight two-fold serial dilution steps to the lowest final siRNA concentration of 1.95 nM. The experiments ended at 4 h and 72 h post direct incubation of PHH cells.
Substance,Max. Inhib. (4 h incubation),IC20 (72 h incubation),IC50 (72 h incubation),Max. Inhib. (72 h incubation)
"ECX008: hsHAO1 GalNAc-siRNA, 3′-GalNAc T2a alternating, same sequences as ETX008, lower purity (sense fG*mA*fCmUfUmUfCmAfUmCfCmUfGmGfAmAfAmUfAmUfA-{NHC6}-{ET-GalNAc-T2CO}; antisense mU*fA*mUfAmUfUmUfCmCfAmGfGmAfUmGfAmAfAmGfUmC*fC*mA; further chemistry not given here)",2.0%,4.9 nM,260 nM,58.1%
"ETX002: hsHAO1 GalNAc-siRNA, 5′-GalNAc T2b inverted abasic; sense X91409, antisense X38483; linker + ligand as FIG. 21 (sense GACUUUCAUCCUGGAAAUAUA; antisense UAUAUUUCCAGGAUGAAAGUCCA; 5'-GalNAc, inverted abasic, 2'-F/OMe, PS; misc_feature 1..21 modified siRNA; misc_feature 1..23 modified siRNA)",7.2%,23.9 nM,,44.3%
"ETX004: hsHAO1 GalNAc-siRNA, 5′-GalNAc T2b alternating; sense X91412, antisense X91398; linker + ligand as FIG. 21 (sense {ET-GalNAc-T2CO}-{NH2C12}-fGmAfCmUfUmUfCmAfUmCfCmUfGmGfAmAfAmUfA*mU*fA; antisense mU*fA*mUfAmUfUmUfCmCfAmGfGmAfUmGfAmAfAmGfUmC*fC*mA)",−2.3%,2.8 nM,,35.5%
